Assays:
[1] = tested on: mouse; assay: Oral activity in vivo (audiogenic mouse test and/or MES test); settings: oral administration
Procedure: The oral bioavailability was tested using the audiogenic mouse test (Audiogenic seizures, R. L. Collins; Chapter 14, pages: 347-372. In: Experimental Models of Epilepsy; By: Pupura, Penry, Tower, Woodbury, Waiter, Raven Press, New York, 1972. Standard Book Number: 0-911216-26-X) and/or the MES test.

[2] = tested on: OF1 mice; assay: Murine maximal electroshock test (MES test); assay type: in vivo, mouse; settings: p.o., percentage of protected mice, printed '@ 20' (mg/kg)

Cn1nccc1-c1cc2c(=O)n(NS(C)(=O)=O)c(=O)[nH]c2cc1C(C)(F)F [Compound C-15, N-[7-(1,1-difluoro-ethyl)-6-(2-methyl-2H-pyrazol-3-yl)-2,4-dioxo-1,4-dihydro-2H-quinazolin-3-yl]-methanesulfonamide]
In vivo orally active [1]: Yes | MES-Test (1 h, po) % protection @ 20 [2]: 80% @ 20^
